Data published in patent publication US12037344B2, “NLRP3 modulators” (INNATE TUMOR IMMUNITY, INC., priority 2018, dated 2024).
Like-named read-outs stand apart in the source and are kept apart here.

Legend:
[1] = target: T1, TLR8 (Homo sapiens, UniProt Q9NR97); test: In vitro human TLR8 binding reporter assay (HEK-Blue, NF-kB/AP1-inducible SEAP); type: cell-based; conditions: read-out: TLR8 Agonist EC50
T1 construct: human HEK-Blue cells co-expressing a TLR7 or TLR8 gene
T1 sequence (Q9NR97 27-1041): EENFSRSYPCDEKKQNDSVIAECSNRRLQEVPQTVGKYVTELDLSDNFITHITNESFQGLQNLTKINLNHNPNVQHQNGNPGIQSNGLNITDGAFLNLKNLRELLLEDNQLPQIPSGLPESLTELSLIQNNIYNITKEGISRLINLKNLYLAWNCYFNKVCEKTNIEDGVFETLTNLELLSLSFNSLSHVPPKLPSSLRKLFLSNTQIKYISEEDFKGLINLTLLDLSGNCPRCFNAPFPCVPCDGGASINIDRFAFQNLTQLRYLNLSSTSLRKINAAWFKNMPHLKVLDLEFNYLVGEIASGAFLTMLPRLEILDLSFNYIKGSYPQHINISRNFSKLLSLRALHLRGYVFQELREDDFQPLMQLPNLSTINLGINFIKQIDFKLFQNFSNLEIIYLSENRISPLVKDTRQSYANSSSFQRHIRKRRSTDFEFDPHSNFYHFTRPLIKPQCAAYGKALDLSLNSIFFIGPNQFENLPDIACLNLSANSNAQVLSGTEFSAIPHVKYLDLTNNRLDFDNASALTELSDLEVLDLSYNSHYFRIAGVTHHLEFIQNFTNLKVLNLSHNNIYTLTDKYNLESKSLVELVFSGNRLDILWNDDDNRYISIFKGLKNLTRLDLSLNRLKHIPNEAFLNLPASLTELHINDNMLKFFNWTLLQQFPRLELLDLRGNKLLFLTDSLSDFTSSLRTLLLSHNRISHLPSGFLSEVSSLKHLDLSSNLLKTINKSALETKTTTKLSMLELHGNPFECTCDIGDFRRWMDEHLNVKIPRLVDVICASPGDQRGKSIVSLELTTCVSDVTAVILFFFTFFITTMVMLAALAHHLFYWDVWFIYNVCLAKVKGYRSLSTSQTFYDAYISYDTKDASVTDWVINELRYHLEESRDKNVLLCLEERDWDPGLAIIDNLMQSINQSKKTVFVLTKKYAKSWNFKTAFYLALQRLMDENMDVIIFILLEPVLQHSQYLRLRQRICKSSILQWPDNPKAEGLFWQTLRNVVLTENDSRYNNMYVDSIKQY
Outline: (§1)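 EC50s come from NF-kB/AP1-driven SEAP secretion in HEK-Blue cells expressing TLR7 or TLR8, measured with Quanti-Blue after an 18 h compound incubation. Maximal response is defined by a 50 μM reference standard.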

[2] = test system: THP-1 cells; test: Measurement of IL-1β production, hTRF protocol (second alternative procedure), THP-1 cells; type: cell-based, human; conditions: Homo sapiens, THP-1, IL-1β production, read-out: NLRP3 hILIB EC50
Outline: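 Compounds, dilution series starting at a final 10 μM, were incubated 2 hours at 37° C with PMA-differentiated THP-1 cells (50 ng/ml overnight; 50,000 cells/well, 2% FBS RPMI). Released IL-1β quantified in supernatant by hTRF kit with 1:40 antibody dilution, 4° C overnight, 665/615 nm ratio.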

[3] = target: T2, TLR7 (Homo sapiens, UniProt Q9NYK1); test: In vitro human TLR7 binding reporter assay (HEK-Blue, NF-kB/AP1-inducible SEAP); type: cell-based; conditions: read-out: TLR7 Agonist EC50
T2 construct: human HEK-Blue cells co-expressing a TLR7 or TLR8 gene
T2 sequence (Q9NYK1 27-1049): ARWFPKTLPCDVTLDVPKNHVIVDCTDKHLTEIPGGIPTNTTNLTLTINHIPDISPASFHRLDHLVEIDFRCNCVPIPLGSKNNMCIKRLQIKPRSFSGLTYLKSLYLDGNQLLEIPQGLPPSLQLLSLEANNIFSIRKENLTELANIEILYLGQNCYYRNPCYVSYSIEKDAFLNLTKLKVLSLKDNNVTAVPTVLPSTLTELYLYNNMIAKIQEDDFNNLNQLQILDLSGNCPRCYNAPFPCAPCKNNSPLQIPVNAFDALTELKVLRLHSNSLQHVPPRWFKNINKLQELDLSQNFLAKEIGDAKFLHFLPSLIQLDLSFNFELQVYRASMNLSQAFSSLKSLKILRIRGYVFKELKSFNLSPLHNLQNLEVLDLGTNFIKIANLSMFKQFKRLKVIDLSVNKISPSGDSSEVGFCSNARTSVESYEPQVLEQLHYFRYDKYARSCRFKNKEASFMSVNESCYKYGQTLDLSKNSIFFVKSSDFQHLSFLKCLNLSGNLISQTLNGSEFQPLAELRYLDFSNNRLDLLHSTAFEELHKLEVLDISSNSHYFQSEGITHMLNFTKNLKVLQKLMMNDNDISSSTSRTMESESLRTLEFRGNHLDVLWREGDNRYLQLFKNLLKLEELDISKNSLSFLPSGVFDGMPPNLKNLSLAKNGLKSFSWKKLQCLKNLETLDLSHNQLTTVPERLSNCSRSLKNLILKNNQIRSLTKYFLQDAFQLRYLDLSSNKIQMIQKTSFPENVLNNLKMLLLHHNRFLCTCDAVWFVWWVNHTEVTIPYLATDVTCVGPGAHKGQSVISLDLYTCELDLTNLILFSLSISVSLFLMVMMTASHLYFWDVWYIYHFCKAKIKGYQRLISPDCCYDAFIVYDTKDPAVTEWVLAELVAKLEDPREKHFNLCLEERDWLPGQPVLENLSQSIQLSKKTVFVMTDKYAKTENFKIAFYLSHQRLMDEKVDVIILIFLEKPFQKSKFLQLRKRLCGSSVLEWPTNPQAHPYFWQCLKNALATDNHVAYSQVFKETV
Outline: as §1

SMILES | EC50 ([1]; activity range class) [µM] | EC50 ([2]; human) [µM] | EC50 ([3]; activity range class) [µM] | EC50 ([1]; activity range) [µM] | EC50 ([2]; human cells) [µM] | EC50 ([3]; activity range) [µM]
Nc1nc2cc(-c3cc[nH]n3)ccc2c2cn(CCCNC(=O)c3ccccn3)nc12 [Example 124] | > 100 | 9.76 | > 100 | – | – | –
Nc1nc2cc(-c3cc[nH]n3)ccc2c2cn(CCCOc3ccccc3)nc12 [Example 2, 2-(3-phenoxypropyl)-7-(1H-pyrazol-3-yl)-2H-pyrazolo[3,4-c]quinolin-4-amine] | 20 to 100 | 0.43 | 20 to 100 | – | – | –
Nc1nc2cc(-c3cc[nH]n3)ccc2c2[nH]c(CN3CCCC3)cc12 [Example 476] | – | – | – | > 100 | 0.51 | > 100
COCC(O)Cn1ncc2c(N)nc3cc(-c4cc[nH]n4)ccc3c21 (stereo not drawn) [Example 306] | > 100 | 1.26 | > 100 | – | – | –
CC(CCO)n1cc2c(N)nc3cc(-c4ccn[nH]4)ccc3c2n1 (stereo not drawn) [Example 281] | > 100 | 0.24 | > 100 | – | – | –
Nc1nc2cc(-n3cccn3)ccc2c2nn(CCO)cc12 [Example 249, 2-(4-amino-7-(1H-pyrazol-1-yl)-2H-pyrazolo[4,3-c]quinolin-2-yl)ethan-1-ol] | > 100 | 0.64 | > 100 | – | – | –
CCCn1ncc2c(N)nc3cc(-c4cc[nH]n4)ccc3c21 [Example 221] | > 100 | 0.21 | > 100 | – | – | –
Nc1nc2cc(-c3cc[nH]n3)ccc2c2nn(CCC(=O)N3CCOCC3)cc12 [Example 501] | – | – | – | > 100 | 0.73 | > 100
Nc1nc2cc(-c3ccn[nH]3)ccc2c2nn(CC3(C(=O)NCc4ccccn4)CC3)cc12 [Example 605] | – | – | – | > 100 | 22.4 | > 100
COCCS(=O)(=O)NCCCn1cc2c(N)nc3cc(-c4ccn[nH]4)ccc3c2n1 [Example 585] | – | – | – | > 100 | 3.88 | > 100
COC1CCN(C(=O)C(C)n2cc3c(N)nc4cc(-c5ccn[nH]5)ccc4c3n2)CC1 (stereo not drawn) [Example 564] | – | – | – | > 100 | 15.5 | > 100
Nc1nc2cc(-c3cc[nH]n3)ccc2c2[nH]c(CNCCF)cc12 [Example 496] | – | – | – | > 100 | 0.05 | > 100
CC(=O)NCCCc1nc2c(N)nc3cc(-c4ccn[nH]4)ccc3c2s1 [Example 139, N-[3-[4-amino-7-(1H-pyrazol-5-yl)-[1,3]thiazolo[4,5-c]quinolin-2-yl]propyl]acetamide] | > 100 | 7.8 | > 100 | – | – | –
Nc1nc2cc(-c3cc[nH]n3)ccc2c2nn(Cc3cn[nH]c3)cc12 [Example 358] | > 100 | 0.18 | > 100 | – | – | –
Nc1nc2cc(-c3cc[nH]n3)ccc2c2cn(CCNC(=O)c3cc(Cl)ccn3)nc12 [Example 61] | > 100 | 0.12 | 20 to 100 | – | – | –
Nc1nc2cc(-c3cc[nH]n3)ccc2c2nn(C3CCC(O)C3)cc12 (stereo not drawn) [Example 339] | > 100 | 0.21 | > 100 | – | – | –
CC(C)NC(=O)Cn1cc2c(n1)c(N)nc1cc(-c3cc[nH]n3)ccc12 [Example 534] | – | – | – | > 100 | 0.71 | > 100
Nc1nc2cc(-c3cc[nH]n3)ccc2c2nn(CC3(O)CCOCC3)cc12 [Example 320] | > 100 | 6.57 | > 100 | – | – | –
Nc1nc2cc(-c3cc[nH]n3)ccc2c2cn(CCNC(=O)c3ccon3)nc12 [Example 69] | > 100 | 0.7 | > 100 | – | – | –
CC(C(=O)N1CCC1)n1cc2c(N)nc3cc(-c4ccn[nH]4)ccc3c2n1 (stereo not drawn) [Example 576] | – | – | – | > 100 | 1.61 | > 100
Nc1nc2cc(-c3cc[nH]n3)ccc2c2[nH]c(CN3[C@@H]4CC[C@H]3COC4)cc12 [Example 474] | – | – | – | > 100 | 0.45 | > 100
COc1cccc(C(=O)NCCn2cc3c(n2)c(N)nc2cc(-c4cc[nH]n4)ccc23)c1 [Example 79] | > 100 | 1.59 | > 100 | – | – | –
CN(C)Cc1cc2c(N)nc3cc(-c4ccn[nH]4)ccc3c2[nH]1 [Example 439] | – | – | – | > 100 | 0.32 | > 100
Nc1nc2cc(-c3cc[nH]n3)ccc2c2[nH]c(CCNS(=O)(=O)c3ccccc3)cc12 [Example 484] | – | – | – | > 100 | 1.41 | > 100
CO[C@H]1CCN(Cc2cc3c(N)nc4cc(-c5cc[nH]n5)ccc4c3[nH]2)C1 [Example 472] | – | – | – | > 100 | 0.23 | > 100
Nc1nc2cc(-c3cc[nH]n3)ccc2c2nn(C3COC3)cc12 [Example 241] | > 100 | 0.46 | > 100 | – | – | –
CC(C)NC(=O)C(C)(C)Cn1cc2c(N)nc3cc(-c4ccn[nH]4)ccc3c2n1 [Example 603] | – | – | – | > 100 | 3.05 | > 100
CC(C(=O)N(C)CCO)n1cc2c(N)nc3cc(-c4ccn[nH]4)ccc3c2n1 (stereo not drawn) [Example 584] | – | – | – | > 100 | 5.03 | > 100
